5 compounds from BindingDB's records for PubMed 6123593 (Eli Lilly, 1982) can be followed below.

A word on the pKi: it is the negative decadic logarithm of the Ki, by convention in mol/L. Lower therefore signals a large Ki.

Experiment [1] has as its target T1, Alpha-2C adrenergic receptor (Rattus norvegicus, UniProt P22086).
T1 sequence (P22086 whole entry): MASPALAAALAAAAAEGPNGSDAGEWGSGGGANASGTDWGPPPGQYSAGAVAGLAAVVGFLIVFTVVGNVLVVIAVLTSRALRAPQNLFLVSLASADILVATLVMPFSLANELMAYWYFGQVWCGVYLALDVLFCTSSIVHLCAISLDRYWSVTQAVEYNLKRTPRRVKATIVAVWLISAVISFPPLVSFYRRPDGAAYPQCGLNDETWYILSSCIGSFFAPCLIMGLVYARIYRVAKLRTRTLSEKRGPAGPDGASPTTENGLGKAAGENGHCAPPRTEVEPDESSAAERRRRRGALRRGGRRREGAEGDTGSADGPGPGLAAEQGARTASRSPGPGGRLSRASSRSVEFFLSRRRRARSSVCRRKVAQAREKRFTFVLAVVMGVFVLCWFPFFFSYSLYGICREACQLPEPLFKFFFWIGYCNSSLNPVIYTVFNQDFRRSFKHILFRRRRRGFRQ

Experiment [2] addresses T2, Muscarinic acetylcholine receptor M2 (Rattus norvegicus, UniProt P10980).
T2 sequence (P10980 whole entry): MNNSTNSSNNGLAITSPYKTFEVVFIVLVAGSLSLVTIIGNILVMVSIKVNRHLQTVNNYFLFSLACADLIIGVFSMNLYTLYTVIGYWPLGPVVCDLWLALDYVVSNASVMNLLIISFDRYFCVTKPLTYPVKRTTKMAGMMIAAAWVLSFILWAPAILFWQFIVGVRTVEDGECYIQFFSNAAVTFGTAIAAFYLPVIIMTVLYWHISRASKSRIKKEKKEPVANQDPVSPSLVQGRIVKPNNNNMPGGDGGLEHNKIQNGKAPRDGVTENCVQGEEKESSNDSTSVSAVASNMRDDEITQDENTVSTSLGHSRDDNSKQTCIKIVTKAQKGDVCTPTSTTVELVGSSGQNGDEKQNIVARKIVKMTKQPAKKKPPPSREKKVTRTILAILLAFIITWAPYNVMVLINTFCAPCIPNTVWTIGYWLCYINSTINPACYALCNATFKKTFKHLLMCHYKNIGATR

A further experiment addresses Histamine H1 receptor (Rattus norvegicus, UniProt P31390).

Structures are written as SMILES. pKi: −log10 of the molar value.

Chain of Histamine H1 receptor (P31390 whole entry): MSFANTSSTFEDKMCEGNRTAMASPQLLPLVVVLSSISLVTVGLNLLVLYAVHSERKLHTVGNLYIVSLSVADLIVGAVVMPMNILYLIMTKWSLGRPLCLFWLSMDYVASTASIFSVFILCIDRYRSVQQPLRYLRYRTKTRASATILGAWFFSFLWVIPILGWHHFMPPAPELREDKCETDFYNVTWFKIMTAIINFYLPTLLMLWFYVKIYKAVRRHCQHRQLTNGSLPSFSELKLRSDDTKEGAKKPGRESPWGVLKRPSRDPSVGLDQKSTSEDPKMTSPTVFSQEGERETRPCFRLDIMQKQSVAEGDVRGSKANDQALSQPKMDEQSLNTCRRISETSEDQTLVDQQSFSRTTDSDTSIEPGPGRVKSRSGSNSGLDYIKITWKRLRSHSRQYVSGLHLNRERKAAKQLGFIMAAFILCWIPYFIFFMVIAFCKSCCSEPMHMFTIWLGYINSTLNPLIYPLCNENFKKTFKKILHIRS

Regarding `CN(C)CCCN1c2ccccc2CCc2ccccc21`, the results for the pKi (in experiment [1]; in experiment [2]; at Histamine H1 receptor) were 5.34, 6.49 and 7.51, respectively.
For the compound `CN1Cc2c(N)cccc2[C@H](c2ccccc2)C1` [(+/-)-2-Methyl-4-phenyl-1,2,3,4-tetrahydro-isoquinolin-8-ylamine], the pKi was 5.21 in experiment [1] and under 5.00 at Histamine H1 receptor.
The like results for `CN(C)C[C@@H]1C2CCC(CC2)[C@@H]1c1ccc(Cl)c(Cl)c1` [CAS_62373-97-1] were, in that order, under 5.00 and 5.70.
`CNCCCN1c2ccccc2CCc2ccccc21` [Desmethylimipramine]: the pKi was 5.04 in experiment [1] and 6.22 in experiment [2].
Turning to `CNCCC(Oc1ccccc1C)c1ccccc1` (configuration not stated) [Methyl-(3-phenyl-3-o-tolyloxy-propyl)-amine(tomoxetine)], the pKi in experiment [1] is under 5.00; in experiment [2], under 5.00; at Histamine H1 receptor, 5.19.
